{"source": "patent US11110067B2", "about": "(THE BOARD OF REGENTS OF THE UNIVERSITY OF TEXAS SYSTEM, priority 2008, dated 2021)", "key": {"[1]": {"tested_on": "HET3 mice", "experiment": "Glucose tolerance on high fat diet", "type": "in vivo, mouse", "settings": "HET3 mice fed a high fat diet"}, "[2]": {"tested_on": "genetically heterogeneous mice", "experiment": "Lifespan of mice fed test agents in the diet (Cohort 2005; rapamycin from 600 days of age)", "settings": "for Effect size expressed as life expectancy at 600 days / Effect size expressed as mean lifespan: pooled data set; for Survival compared with controls: added to the diet at 4 months of age, enalapril 120 mg/kg food, CAPE 30 or 300 mg/kg food", "source_text": "Mice were produced at each of the three test sites by mating CB6F1 females with C3D2F1 males to produce a genetically heterogeneous population. […] Each test site enrolled approximately equal numbers of 19-21 day-old weanlings each month over a six month period, housing 3 males or 4 females/cage. Each site used diets that the manufacturer claimed were based on the NIH-31 standard for breeding cages and the period between weaning and the initiation of experimental diets, as follows: For breeding cages, UM used Purina 5008, UT used Teklad 7912, and TJL used Purina 5K52. For weanlings prior to 4 months of age, UM used Purina 5008, UT used Teklad 7912, and TJL used Purina 5LG6. Starting when 4 months old, mice in the Control, Enalapril, and CAPE groups received Purina 5LG6 at all three sites, without additives (control group) or with the test agent. […] The principal endpoint was age at death (for mice found dead at daily inspections) or age at euthanasia (for mice deemed unlikely to survive for more than an additional 48 h).\nThe Cohort 2005 study population, distributed almost equally among the three test sites, consisted initially of 1960 mice, of which 674 were assigned to the control group and 317 to 328 to each of the four treatment groups. Of these, 51 mice were removed from the study because of fighting (31 mice), accidental death (such as chip implantation or cage flooding; 13 mice), or because of technical error (error in gender assignment or diet selection; 7 mice). For survival analyses, mice were treated as alive at the date of their removal from the protocol, and lost to follow-up thereafter. These censored mice were not included in calculations of median longevity.\nMice were examined at least daily for signs of ill health, and were euthanized for humane reasons if they were so severely moribund that they were considered, by an experienced technician, unlikely to survive for more than an additional 48 hrs. […] The age at which a moribund mouse was euthanized was taken as the best available estimate of its natural lifespan. Mice found dead were also noted at each daily inspection.\nTestDiet, Inc. (Richmond, Ind.) prepared batches of Purina 5LG6 food containing each of the test substances, as well as control diet batches, at intervals of approximately 120 days, and shipped each batch of food at the same time to each of the three test sites. Enalapril was purchased from Sigma (catalogue E6888-5G) and used at 120 mg per kg food; on the assumption that the average mouse weighs 30 gm and consumes 5 gm of food/day, this dose supplies 20 mg enalapril per kg body weight/day. CAPE, i.e. caffeic acid phenethyl ester, was purchased from Cayman (Ann Arbor, Mich.; Catalogue 70750), and used at either of two doses: the high dose was 300 mg/kg food (50 mg/kg body weight/day), and the low dose was 30 mg/kg food (5 mg/kg body weight/day)."}, "[3]": {"tested_on": "Aβ / APP in brains of hAPP(J20) mice", "experiment": "APP Western blots and Aβ ELISA in brain, hAPP(J20) mice", "type": "in vivo, mouse", "method": "(§1) Tissue was processed and analyzed as described previously 13, 25, 26 and is described in detail in Supplementary Information. Aβ and tau were measured using specific ELISAs.\n(§2) 3×Tg-AD mice were sacrificed by CO2 asphyxiation. The brains were extracted and cut in-half sagitally and tissue was processed as described (Oddo et al., 2008). The hAPP(J20) mice were euthanized by isoflurane overdose. Hemibrains were flash frozen. One hemibrain was homogeneized in liquid N2 while the other was used in immunohistochemical determinations. For Western blot analyses, proteins from both hAPP(J20) and 3×Tg-AD soluble fractions were resolved by SDS/PAGE (Invitrogen, Temecula, Calif.) under reducing conditions and transferred to a nitrocellulose or PVDF membrane. The membrane was incubated in a 5% solution of non-fat milk or in 5% BSA for 1 hour at 20° C. […] Aβ40 and Aβ42 levels were measured from the soluble and insoluble fractions using a sandwich ELISA protocol as described previously (Oddo et al., 2005). Aβ40 and Aβ42 in hAPP(J20) mice were quantitated in guanidine homogenates of Tg hAPP(J20) hemibrains as described (Galvan et al., 2006) using specific ELISA assays (Invitrogen, Carlsbad, Calif.)."}, "[4]": {"tested_on": "Aβ / APP in brains of 3×Tg-AD mice", "experiment": "APP Western blots, Aβ ELISA and immunohistochemistry in brain, 3xTg-AD mice", "type": "in vivo, mouse", "settings": "ELISA", "method": "as §1\nas §2, with “Calif.). […]” for “Calif.).”"}, "[5]": {"settings": "Pong and Zaleska, 2003; cited from earlier work"}, "[6]": {"experiment": "Body weight of rapamycin-fed mice", "type": "in vivo, mouse"}, "[7]": {"tested_on": "phosphorylation of ribosomal protein S6 (Ser240/244), a substrate of S6 kinase 1", "experiment": "Immunoblot of rpS6 phosphorylation in tissue lysates", "type": "in vivo, mouse", "settings": "visceral white adipose tissue; fed from 270 to about 800 days of age", "method": "Signal intensities for each immunoblot were captured using a Kodak Image Station, which were analysed using Kodak 1D image analysis software."}}}
{"smiles": "CO[C@H]1C[C@@H]2CC[C@@H](C)[C@@](O)(O2)C(=O)C(=O)N2CCCC[C@H]2C(=O)O[C@H]([C@H](C)C[C@@H]2CC[C@@H](O)[C@H](OC)C2)CC(=O)[C@H](C)/C=C(\\C)[C@@H](O)[C@@H](OC)C(=O)[C@H](C)C[C@H](C)/C=C/C=C/C=C/1C", "note": "[rapamycin, (3S,6R,7E,9R,10R,12R,14S,15E,17E,19E,21S,23S,26R,27R,34aS)-9,10,12,13,14,21,22,23,24,25,26,27,32,33,34,34a-hexadecahydro-9,27-dihydroxy-3-[(1R)-2-[(1S,3R,4R)-4-hydroxy-3-methoxycyclohexyl]-1-methylethyl]-10,21-dimethoxy-6,8,12,14,20,26-hexamethyl-23,27-epoxy-3H-pyrido[2,1-c][1,4]oxaazacyclohentria-contine-1,5,11,28,29 (4H,6H,31H)-pentone]", "values": [{"measurement": "Glucose tolerance", "setting": "[1]", "value": "causes glucose intolerance"}, {"measurement": "Increase of life expectancy at 600 days", "setting": "[2]; females, TJL", "value": 45, "unit": "%"}, {"measurement": "Mean lifespan increase", "setting": "[2]; females, TJL", "value": 15, "unit": "%"}, {"measurement": "Percentage increase of age at 90th percentile versus controls", "setting": "[2]; females, TJL", "value": 17, "unit": "%"}, {"measurement": "% Live at the 90th percentile age of the joint distribution", "setting": "[2]; females, TJL, age 1167 days", "value": 22.9, "unit": "%"}, {"measurement": "Number alive at the 90th percentile age", "setting": "[2]; females, TJL, age 1167 days", "value": 11}, {"measurement": "Number dead at the 90th percentile age", "setting": "[2]; females, TJL, age 1167 days", "value": 37}, {"measurement": "Increase of life expectancy at 600 days", "setting": "[2]; females, UM", "value": 48, "unit": "%"}, {"measurement": "Mean lifespan increase", "setting": "[2]; females, UM", "value": 16, "unit": "%"}, {"measurement": "Percentage increase of age at 90th percentile versus controls", "setting": "[2]; females, UM", "value": 14, "unit": "%"}, {"measurement": "% Live at the 90th percentile age of the joint distribution", "setting": "[2]; females, UM, age 1162 days", "value": 27.1, "unit": "%"}, {"measurement": "Number alive at the 90th percentile age", "setting": "[2]; females, UM, age 1162 days", "value": 13}, {"measurement": "Number dead at the 90th percentile age", "setting": "[2]; females, UM, age 1162 days", "value": 35}, {"measurement": "Increase of life expectancy at 600 days", "setting": "[2]; females, UT", "value": 22, "unit": "%"}, {"measurement": "Mean lifespan increase", "setting": "[2]; females, UT", "value": 7, "unit": "%"}, {"measurement": "Percentage increase of age at 90th percentile versus controls", "setting": "[2]; females, UT", "value": 8, "unit": "%"}, {"measurement": "% Live at the 90th percentile age of the joint distribution", "setting": "[2]; females, UT, age 1123 days", "value": 14.6, "unit": "%"}, {"measurement": "Number alive at the 90th percentile age", "setting": "[2]; females, UT, age 1123 days", "value": 7}, {"measurement": "Number dead at the 90th percentile age", "setting": "[2]; females, UT, age 1123 days", "value": 41}, {"measurement": "Percentage increase of age at 90th percentile versus controls", "setting": "[2]; females, all sites", "value": 14, "unit": "%"}, {"measurement": "Effect size expressed as life expectancy at 600 days", "setting": "[2]; females", "value": 38, "unit": "%"}, {"measurement": "Effect size expressed as mean lifespan", "setting": "[2]; females", "value": 13, "unit": "%"}, {"measurement": "% Live at the 90th percentile age of the joint distribution", "setting": "[2]; females, pooled sites", "value": 21.5, "unit": "%"}, {"measurement": "Number alive at the 90th percentile age", "setting": "[2]; females, pooled sites", "value": 31}, {"measurement": "Number dead at the 90th percentile age", "setting": "[2]; females, pooled sites", "value": 113}, {"measurement": "% Live at the 90th percentile age of the joint distribution", "setting": "[2]; females, pooled sites, listed as Rapa", "value": 21.5, "unit": "%"}, {"measurement": "Increase of life expectancy at 600 days", "setting": "[2]; males, TJL", "value": 16, "unit": "%"}, {"measurement": "Mean lifespan increase", "setting": "[2]; males, TJL", "value": 5, "unit": "%"}, {"measurement": "Percentage increase of age at 90th percentile versus controls", "setting": "[2]; males, TJL", "value": 10, "unit": "%"}, {"measurement": "% Live at the 90th percentile age of the joint distribution", "setting": "[2]; males, TJL, age 1088 days", "value": 19.3, "unit": "%"}, {"measurement": "Number alive at the 90th percentile age", "setting": "[2]; males, TJL, age 1088 days", "value": 11}, {"measurement": "Number dead at the 90th percentile age", "setting": "[2]; males, TJL, age 1088 days", "value": 46}, {"measurement": "Increase of life expectancy at 600 days", "setting": "[2]; males, UM", "value": 23, "unit": "%"}, {"measurement": "Mean lifespan increase", "setting": "[2]; males, UM", "value": 8, "unit": "%"}, {"measurement": "Percentage increase of age at 90th percentile versus controls", "setting": "[2]; males, UM", "value": 4, "unit": "%"}, {"measurement": "% Live at the 90th percentile age of the joint distribution", "setting": "[2]; males, UM, age 1154 days", "value": 17.6, "unit": "%"}, {"measurement": "Number alive at the 90th percentile age", "setting": "[2]; males, UM, age 1154 days", "value": 9}, {"measurement": "Number dead at the 90th percentile age", "setting": "[2]; males, UM, age 1154 days", "value": 42}, {"measurement": "Increase of life expectancy at 600 days", "setting": "[2]; males, UT", "value": 52, "unit": "%"}, {"measurement": "Mean lifespan increase", "setting": "[2]; males, UT", "value": 15, "unit": "%"}, {"measurement": "Percentage increase of age at 90th percentile versus controls", "setting": "[2]; males, UT", "value": 16, "unit": "%"}, {"measurement": "% Live at the 90th percentile age of the joint distribution", "setting": "[2]; males, UT, age 1112 days", "value": 23.3, "unit": "%"}, {"measurement": "Number alive at the 90th percentile age", "setting": "[2]; males, UT, age 1112 days", "value": 14}, {"measurement": "Number dead at the 90th percentile age", "setting": "[2]; males, UT, age 1112 days", "value": 48}, {"measurement": "Percentage increase of age at 90th percentile versus controls", "setting": "[2]; males, all sites", "value": 9, "unit": "%"}, {"measurement": "Effect size expressed as life expectancy at 600 days", "setting": "[2]; males", "value": 28, "unit": "%"}, {"measurement": "Effect size expressed as mean lifespan", "setting": "[2]; males", "value": 9, "unit": "%"}, {"measurement": "% Live at the 90th percentile age of the joint distribution", "setting": "[2]; males, pooled sites", "value": 20.2, "unit": "%"}, {"measurement": "Number alive at the 90th percentile age", "setting": "[2]; males, pooled sites", "value": 34}, {"measurement": "Number dead at the 90th percentile age", "setting": "[2]; males, pooled sites", "value": 134}, {"measurement": "% Live at the 90th percentile age of the joint distribution", "setting": "[2]; males, pooled sites, listed as Rapa", "value": 20.2, "unit": "%"}, {"measurement": "Decrease of soluble Aβ42 levels", "setting": "[3]", "value": "52.35±13.14", "unit": "%"}, {"measurement": "Decrease of soluble Aβ42 levels", "setting": "[4]", "value": "32.78±6.68", "unit": "%"}, {"measurement": "Blood brain barrier passage", "setting": "[5]", "value": "readily crosses the blood brain barrier"}, {"measurement": "Body weight", "setting": "[6]; high fat diet, 12 weeks of feeding", "value": "No difference"}, {"measurement": "Body weight", "setting": "[6]; mouse, in vivo", "value": "No effect"}, {"measurement": "Reduction of levels of phosphorylated rpS6", "setting": "[7]", "value": "4-5 fold"}]}
{"smiles": "O=C(/C=C/c1ccc(O)c(O)c1)OCCc1ccccc1", "note": "[CAPE, caffeic acid phenethyl ester]", "values": [{"measurement": "Survival compared with controls", "setting": "[2]", "value": "did not differ from controls"}]}
{"smiles": "CCOC(=O)[C@H](CCc1ccccc1)N[C@@H](C)C(=O)N1CCC[C@H]1C(=O)O", "note": "[enalapril]", "values": [{"measurement": "Survival compared with controls", "setting": "[2]", "value": "did not differ from controls"}]}
